Data set [1] can be described thus: Apparent permeability from basolateral to apical side of MDCK cells at 2 uM by LC-MS/MS analysis. The data set is classed as ADME, cell-based, Canis lupus familiaris. The following applies: dog.
Data set [2] can be described thus: Apparent permeability from apical to basolateral side of MDCK cells at 2 uM by LC-MS/MS analysis. The data set is classed as ADME, cell-based, Canis lupus familiaris. As to conditions: dog.

The structures appear in SMILES notation.

The Papp B→A is how fast a substance crosses the layer from the basolateral side. One may read the Papp A→B as the apparent permeability from the apical to the basolateral side of a cell layer. On to `CC(C)CN(Cc1ccc(-c2ccc(S(C)(=O)=O)cc2)cc1)S(=O)(=O)Cc1ccccc1`, for which the Papp B→A at 2 µM in data set [1] came to 2 ×10⁻⁶ cm/s. The Papp A→B at 2 µM in data set [2] was 3 ×10⁻⁶ cm/s.

As for `CC(=O)N1CCN(c2ccc(CN(C3CCC3)S(=O)(=O)Cc3ccccc3)cc2)CC1`, the Papp B→A at 2 µM in data set [1] stood at 24 ×10⁻⁶ cm/s. Also, the Papp A→B at 2 µM in data set [2] was determined as 24 ×10⁻⁶ cm/s.

Source of the values: ChEMBL document CHEMBL3352759, “Reduction in lipophilicity improved the solubility, plasma-protein binding, and permeability of tertiary sulfonamide RORc inverse agonists” (Bioorg Med Chem Lett, 2014).
